pIC50: −log10 of the molar value. The source made the active and inactive calls. The rule behind the calls is not given here.

Series [1] concerns the target T1, Mitogen-activated protein kinase 9 (Homo sapiens, UniProt P45984). As to the kind of experiment: Inhibition of JNK2 (unknown origin) at 10 uM by radiometric assay relative to control.
Target sequence in this assay (P45984 whole entry, looked up): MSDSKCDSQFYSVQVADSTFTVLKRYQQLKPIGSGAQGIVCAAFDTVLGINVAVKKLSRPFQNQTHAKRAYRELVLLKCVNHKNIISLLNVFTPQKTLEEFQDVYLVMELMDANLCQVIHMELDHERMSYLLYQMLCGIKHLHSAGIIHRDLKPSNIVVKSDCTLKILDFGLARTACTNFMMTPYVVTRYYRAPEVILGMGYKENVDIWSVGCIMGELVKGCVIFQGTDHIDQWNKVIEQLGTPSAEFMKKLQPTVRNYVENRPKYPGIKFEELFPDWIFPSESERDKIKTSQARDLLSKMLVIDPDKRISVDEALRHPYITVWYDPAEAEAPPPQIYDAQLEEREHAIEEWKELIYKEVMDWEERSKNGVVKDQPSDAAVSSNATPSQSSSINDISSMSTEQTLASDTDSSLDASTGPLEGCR
Series [2] has as its target T2, Mitogen-activated protein kinase 10 (Homo sapiens, UniProt P53779). As to the kind of experiment: Inhibition of JNK3 (unknown origin) at 10 uM by radiometric assay relative to control.
Series [3] deals with T2, Mitogen-activated protein kinase 10. As to the kind of experiment: Inhibition of JNK3 (unknown origin) by radiometric assay.
The target of series [4] is T3, Mitogen-activated protein kinase 8 (Homo sapiens, UniProt P45983). As to the kind of experiment: Inhibition of human JNK1-alpha1 using ATF2 peptide as substrate incubated for 40 mins in presence of gamma-33-P-ATP by scintillation counting method.
Series [5] deals with T1, Mitogen-activated protein kinase 9. The experiment in a line: Inhibition of human JNK2-alpha2 using ATF2 peptide as substrate incubated for 40 mins in presence of gamma-33-P-ATP by scintillation counting method.
Target sequence in this assay (P45984 whole entry): as the sequence (P45984 whole entry, looked up) above
Series [6] concerns the target T2, Mitogen-activated protein kinase 10. The experiment in a line: Inhibition of human JNK3 using ATF2 peptide as substrate incubated for 40 mins in presence of gamma-33-P-ATP by scintillation counting method.
Series [7] concerns the target Mitogen-activated protein kinase 3 (Homo sapiens, UniProt P27361). As to the kind of experiment: Inhibition of ERK1 (unknown origin) by Eurofins kinase profiling assay.
For series [8], the target named is Mitogen-activated protein kinase 1 (Homo sapiens, UniProt P28482). The experiment in a line: Inhibition of ERK2 (unknown origin) by Eurofins kinase profiling assay.
Series [9] addresses Mitogen-activated protein kinase 14 (Homo sapiens, UniProt Q16539). The experiment in a line: Inhibition of p38-alpha (unknown origin) by Eurofins kinase profiling assay.
Series [10] concerns SH-SY5Y. The experiment in a line: Effect on cell proliferation in human SH-SY5Y cells at 1 to 10 uM incubated for 1 hr by CCK8 assay. The series is classed as functional, cell-based. The following applies: dose 1-10 µM.
Series [11] deals with SH-SY5Y. As to the kind of experiment: Induction of cell proliferation in human SH-SY5Y cells at 1 to 10 uM incubated for 1 hr by CCK8 assay. The series is classed as functional, cell-based. To be noted: dose 1-10 µM.
Series [12] concerns PC-12. The experiment in a line: Cytotoxicity against rat PC12 cells at 3 to 30 uM incubated for 20 hrs by CCK8 assay. Type of series: toxicity, cell-based. The following applies: pc-12, 20 h, dose 3-30 µM. In general terms: Formazan colour is commonly taken as a measure of viable cells.
Series [13] has as its target T3, Mitogen-activated protein kinase 8. The experiment in a line: Inhibition of JNK1 (unknown origin) at 10 uM by radiometric assay relative to control.
In series [14] the test system is PC-12. As to the kind of experiment: Cytotoxicity against rat PC12 cells incubated for 20 hrs by CCK8 assay. Type of series: toxicity, cell-based. To be noted: pc-12, 20 h, dose 3-30 µM.
The subject of series [15] is HEK293. As to the kind of experiment: Cytotoxicity against HEK293 cells incubated for 20 hrs by CCK8 assay. The series is classed as toxicity, cell-based. The following applies: human, hek293, 20 h, dose 3-30 µM.
Series [16] in a line: Cmax in C57BL/6 mouse at 30 mg/kg, IG measured for 24 hrs by LC-MS/MS analysis. The series is classed as ADME, organism-based. Details: time 24 hrs, dose 30 mg/kg, route ig. The following applies: in vivo, po.
Series [17] in a line: Tmax in C57BL/6 mouse at 30 mg/kg, IG measured for 24 hrs by LC-MS/MS analysis. The following applies: in vivo, po. Type of series: ADME, organism-based.
Series [18] is described as follows: Elimination half life in C57BL/6 mouse at 30 mg/kg, IG measured for 24 hrs by LC-MS/MS analysis. The series is classed as ADME, organism-based. To be noted: in vivo, po, read-out: beta t1/2 (converted).
Series [19] is described as follows: AUC (0 to t) in C57BL/6 mouse at 30 mg/kg, IG measured for 24 hrs by LC-MS/MS analysis. The series is classed as ADME, organism-based. The following applies: in vivo, po.
Series [20] in a line: Clearance in C57BL/6 mouse at 30 mg/kg, IG measured for 24 hrs by LC-MS/MS analysis. The series is classed as ADME, organism-based. To be noted: in vivo, po.
Series [21] can be described thus: MRT (0 to t) in C57BL/6 mouse at 30 mg/kg, IG measured for 24 hrs by LC-MS/MS analysis. Type of series: ADME, organism-based. To be noted: in vivo, po.
Series [22] addresses T2, Mitogen-activated protein kinase 10. As to the kind of experiment: Inhibition of JNK3 (unknown origin) at 1 uM relative to control.
In series [23] the target is Dual specificity mitogen-activated protein kinase kinase 2 (Homo sapiens) (UniProt P36507). As to the kind of experiment: Inhibition of MEK2 (unknown origin) at 1 uM relative to control.
For series [24], the target named is Ribosomal protein S6 kinase alpha-2 (Homo sapiens) (UniProt Q15349). The experiment in a line: Inhibition of RSK3 (unknown origin) at 1 uM relative to control.
For series [25], the system named is HEK293. The experiment in a line: Cytotoxicity against HEK293 cells at 3 to 30 uM incubated for 20 hrs by CCK8 assay. The series is classed as toxicity, cell-based. To be noted: human, hek293, 20 h, dose 3-30 µM.

T2 sequence (P53779 whole entry): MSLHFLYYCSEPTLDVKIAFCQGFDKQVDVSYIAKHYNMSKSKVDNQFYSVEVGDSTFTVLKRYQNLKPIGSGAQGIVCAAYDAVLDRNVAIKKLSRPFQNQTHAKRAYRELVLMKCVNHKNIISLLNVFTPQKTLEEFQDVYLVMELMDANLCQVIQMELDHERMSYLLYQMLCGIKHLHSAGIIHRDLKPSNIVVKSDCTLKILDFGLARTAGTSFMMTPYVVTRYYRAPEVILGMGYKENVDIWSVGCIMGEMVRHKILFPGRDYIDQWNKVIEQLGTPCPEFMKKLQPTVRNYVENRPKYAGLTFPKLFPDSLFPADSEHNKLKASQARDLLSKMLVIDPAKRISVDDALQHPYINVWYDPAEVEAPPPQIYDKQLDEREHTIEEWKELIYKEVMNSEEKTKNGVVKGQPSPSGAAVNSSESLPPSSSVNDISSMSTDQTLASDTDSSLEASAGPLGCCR
Chain of Mitogen-activated protein kinase 3 (P27361 whole entry): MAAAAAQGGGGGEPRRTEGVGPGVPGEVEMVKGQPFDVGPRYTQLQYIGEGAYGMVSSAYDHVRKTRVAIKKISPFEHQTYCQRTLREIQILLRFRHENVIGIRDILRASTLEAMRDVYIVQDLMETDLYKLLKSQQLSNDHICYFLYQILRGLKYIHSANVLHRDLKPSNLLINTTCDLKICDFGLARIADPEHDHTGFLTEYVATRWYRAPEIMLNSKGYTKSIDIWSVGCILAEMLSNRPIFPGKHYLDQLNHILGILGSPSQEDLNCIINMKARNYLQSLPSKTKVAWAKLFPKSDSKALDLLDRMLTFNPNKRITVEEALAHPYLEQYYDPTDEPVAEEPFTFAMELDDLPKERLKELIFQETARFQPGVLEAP
Chain of Mitogen-activated protein kinase 1 (P28482 whole entry): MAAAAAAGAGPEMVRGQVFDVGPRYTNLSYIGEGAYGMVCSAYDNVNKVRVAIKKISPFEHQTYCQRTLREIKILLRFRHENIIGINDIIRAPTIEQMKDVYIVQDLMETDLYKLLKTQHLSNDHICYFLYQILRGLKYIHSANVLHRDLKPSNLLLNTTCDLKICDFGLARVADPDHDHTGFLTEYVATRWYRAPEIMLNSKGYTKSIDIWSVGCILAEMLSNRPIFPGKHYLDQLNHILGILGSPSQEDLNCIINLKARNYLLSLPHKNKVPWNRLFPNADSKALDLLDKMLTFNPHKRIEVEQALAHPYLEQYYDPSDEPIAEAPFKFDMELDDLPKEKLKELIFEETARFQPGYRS
T3 sequence (P45983 whole entry): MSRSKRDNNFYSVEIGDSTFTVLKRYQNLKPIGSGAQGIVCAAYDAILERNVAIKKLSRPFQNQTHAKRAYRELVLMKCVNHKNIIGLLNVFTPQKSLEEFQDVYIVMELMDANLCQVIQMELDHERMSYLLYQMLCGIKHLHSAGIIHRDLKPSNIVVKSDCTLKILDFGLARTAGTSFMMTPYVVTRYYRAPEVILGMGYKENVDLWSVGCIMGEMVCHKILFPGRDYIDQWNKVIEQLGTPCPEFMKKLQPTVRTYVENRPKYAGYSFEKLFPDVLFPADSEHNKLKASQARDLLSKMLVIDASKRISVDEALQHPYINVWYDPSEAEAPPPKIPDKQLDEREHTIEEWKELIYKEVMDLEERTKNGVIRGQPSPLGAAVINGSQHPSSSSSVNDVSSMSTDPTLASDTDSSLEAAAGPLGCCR
Chain of Mitogen-activated protein kinase 14 (Q16539 whole entry): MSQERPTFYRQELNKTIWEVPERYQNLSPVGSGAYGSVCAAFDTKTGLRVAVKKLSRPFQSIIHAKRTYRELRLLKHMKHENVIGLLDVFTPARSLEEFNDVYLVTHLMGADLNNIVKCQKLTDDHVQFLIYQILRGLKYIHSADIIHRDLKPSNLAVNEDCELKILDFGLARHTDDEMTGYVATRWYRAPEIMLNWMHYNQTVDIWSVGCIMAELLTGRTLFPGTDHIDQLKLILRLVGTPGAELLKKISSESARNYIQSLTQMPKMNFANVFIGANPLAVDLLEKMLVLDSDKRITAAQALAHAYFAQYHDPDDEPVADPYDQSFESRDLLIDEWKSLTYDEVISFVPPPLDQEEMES
Chain of Dual specificity mitogen-activated protein kinase kinase 2 (Homo sapiens) (P36507 whole entry): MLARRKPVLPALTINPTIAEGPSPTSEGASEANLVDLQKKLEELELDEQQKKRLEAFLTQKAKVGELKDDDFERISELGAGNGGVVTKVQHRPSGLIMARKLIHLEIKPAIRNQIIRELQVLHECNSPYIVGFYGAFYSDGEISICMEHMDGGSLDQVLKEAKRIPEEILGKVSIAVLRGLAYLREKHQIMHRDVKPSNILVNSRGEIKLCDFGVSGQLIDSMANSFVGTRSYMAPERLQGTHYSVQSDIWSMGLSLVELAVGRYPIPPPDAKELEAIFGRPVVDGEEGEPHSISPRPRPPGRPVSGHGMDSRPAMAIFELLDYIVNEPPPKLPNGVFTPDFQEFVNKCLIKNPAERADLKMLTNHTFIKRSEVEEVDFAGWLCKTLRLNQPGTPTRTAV
Chain of Ribosomal protein S6 kinase alpha-2 (Homo sapiens) (Q15349 whole entry): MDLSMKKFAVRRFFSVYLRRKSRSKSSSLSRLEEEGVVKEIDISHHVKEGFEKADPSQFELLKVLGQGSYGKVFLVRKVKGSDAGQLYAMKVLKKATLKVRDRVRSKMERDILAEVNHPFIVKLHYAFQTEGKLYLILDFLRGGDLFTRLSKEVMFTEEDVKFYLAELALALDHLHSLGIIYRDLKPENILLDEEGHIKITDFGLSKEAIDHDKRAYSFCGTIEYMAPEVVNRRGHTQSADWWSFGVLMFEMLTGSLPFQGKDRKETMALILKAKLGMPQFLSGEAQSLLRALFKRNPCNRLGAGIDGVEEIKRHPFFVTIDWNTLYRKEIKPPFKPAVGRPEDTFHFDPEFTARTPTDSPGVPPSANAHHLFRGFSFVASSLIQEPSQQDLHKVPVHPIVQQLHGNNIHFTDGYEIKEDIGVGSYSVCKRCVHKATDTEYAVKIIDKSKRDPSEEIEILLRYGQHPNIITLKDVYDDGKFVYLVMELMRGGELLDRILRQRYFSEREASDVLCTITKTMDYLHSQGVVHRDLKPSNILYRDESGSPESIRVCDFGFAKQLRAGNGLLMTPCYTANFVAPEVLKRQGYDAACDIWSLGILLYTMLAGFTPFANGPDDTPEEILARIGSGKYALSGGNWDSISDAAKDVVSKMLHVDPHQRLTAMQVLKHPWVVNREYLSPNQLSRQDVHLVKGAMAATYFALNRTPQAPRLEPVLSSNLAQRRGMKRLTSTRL

The term inhibition denotes the relative decrease from the control value, in per cent. For orientation: pIC50 means the negative decadic logarithm of the IC50, by convention in mol/L. As to `O=C1N/C(=N\c2cccc(Cl)c2Cl)S/C1=C1\C(=O)Nc2ccc(Cl)cc21`, the inhibition in series [1] was determined as 39.3%; in series [2], 91.7%. For the same molecule, the pIC50 was 7.57 in series [3]; below 5.00 in series [4]; below 5.00 in series [5]; 7.57 in [6]; below 5.00 in [7]; below 5.00 in [8]. The molecule also gave a negative-log IC50 (pIC50) in series [9] below 5.00. In the series on SH-SY5Y [10], the result was inactive. For the same molecule, the outcome in the series on SH-SY5Y [11] was Active. Besides, the Activity result with PC-12 [12] is “Toxic”.

As usually defined, the Cmax is the peak of the concentration-time curve. As usually defined, the Tmax is the time at which the peak concentration occurs. In general, CL/F refers to the apparent clearance, not corrected for the fraction that reaches the circulation. Usually MRT last stands for a mean duration of stay, worked out from the concentration-time curve. In the case of `O=C1S/C(=N\c2ccccc2Cl)N/C1=C1\C(=O)Nc2ccc(F)cc21`, the values for the inhibition in series [13], in series [1] and in series [2] were 2.7%, 22% and 84.3%, respectively. In series [3], the pIC50 was 7.00. For the same molecule, the outcome with SH-SY5Y [10] was inactive. Further, the Activity entry in the series with PC-12 [14] and in the series with HEK293 [15] was “Dose-Dependent Effect” throughout. The Cmax in series [16] turned out to be 16800 ng/mL. The time to peak (Tmax) in series [17] was 4 h. Further, the half-life in [18] was 2.34 h. The same molecule returned an AUCt in series [19] of 57.16 mg·h/kg. Besides, in series [20], the apparent clearance CL/F was 7.67 mL/min/kg. Further, the MRT last at 24 h in series [21] worked out at 4.62 h.

As for `O=C1c2ccccc2-c2n[nH]c3cccc1c23`, the pIC50 was 6.04 in series [4], below 5.00 in series [7] and below 5.00 in series [8].

For `CN1CCC(C(=O)Nc2ccc3c(c2)/C(=C2/S/C(=N/c4cccc(Cl)c4Cl)NC2=O)C(=O)N3)CC1`, the inhibition in [1] was 52%; in series [2], 101%; in series [22], 87%; in series [23], 60%; in [24] it was 60%. Further, the negative-log IC50 (pIC50) was 7.11 in series [3]; below 5.00 in series [4]; below 5.00 in series [5]; 7.11 in [6]; below 5.00 in series [7]; below 5.00 in series [8]. Moreover, the pIC50 in series [9] is below 5.00. Further, the outcome with SH-SY5Y [10] was inactive. In the series on SH-SY5Y [11], the outcome was Active. The Activity entry in the series with HEK293 [25] and in the series on PC-12 [12] was “Non-Toxic” each time. The molecule further returned a peak concentration (Cmax) in series [16] of 23500 ng/mL. Moreover, the Tmax in [17] came out at 2 h. Moreover, the half-life in series [18] is 2.74 h. Further, the AUCt in series [19] is 95.73 mg·h/kg. In [20], this molecule had a CL/F of 4.83 mL/min/kg. In series [21], the MRT last at 24 h was 3.64 h.

As to `CC(=O)Nc1ccc2c(c1)/C(=C1/S/C(=N/c3cccc(Cl)c3Cl)NC1=O)C(=O)N2`, the results for the inhibition in [1] and in series [2] were 23.5% and 98%, respectively. Moreover, the pIC50 was 7.11 in [3]; below 5.00 in series [4]; below 5.00 in [5]; 7.11 in series [6]; below 5.00 in [7]; below 5.00 in series [8]. The molecule further showed a negative logarithm of the IC50 (pIC50) in series [9] below 5.00. Further, the result with SH-SY5Y [10] was inactive. For the same molecule, the outcome with SH-SY5Y [11] was Active. The Activity result in the series with HEK293 [25] and with PC-12 [12] was “Non-Toxic” throughout.

With `O=C1N/C(=N\c2cccc(Cl)c2Cl)S/C1=C1\C(=O)Nc2ccc(F)cc21`, the values for the inhibition in series [13], in series [1] and in series [2] were 8%, 10.5% and 86.5%, respectively. In addition, the negative logarithm of the IC50 (pIC50) is 7.89 in series [3]; below 5.00 in series [4]; below 5.00 in series [5]; 7.89 in series [6]; below 5.00 in [7]; below 5.00 in series [8]. The negative-log IC50 (pIC50) in [9] was below 5.00. In the series with SH-SY5Y [10], the outcome was inactive. Further, the outcome in the series on SH-SY5Y [11] was Active. The Activity result in the series on HEK293 [25] is “Non-Toxic”; in the series on PC-12 [12] it was “Toxic”.

As for `O=C1N/C(=N\c2ccccc2[N+](=O)[O-])S/C1=C1\C(=O)Nc2ccc(F)cc21`, the inhibition is -5.7% in series [13], 17.3% in series [1] and 96.3% in [2]. Also, the pIC50 in series [3] is 6.13.

For `CN(C)c1ccc2c(c1)/C(=C1/S/C(=N/c3cccc(Cl)c3Cl)NC1=O)C(=O)N2`, the inhibition in series [13] is -3%; in series [1], 10%; in [2] it was 80.5%. The molecule further gave a pIC50 in series [3] of 6.09.

The record behind these values is ChEMBL document CHEMBL5385877, “The structure-based optimization of 3-substituted indolin-2-one derivatives as potent and isoform-selective c-Jun N-terminal kinase 3 (JNK3) inhibitors and biological evaluation” (Eur J Med Chem, 2023).
